Where two headings read alike, the source gives them in different places.
Key:
[1] = molecular target: T1, GST-VH1 (Vaccinia virus, UniProt P07239)
[2] = molecular target: T1, GST-VH1; details: pH 7.4

## HQYFMpTEYVAT
[1]
  kcat/KM: 490 M⁻¹ s⁻¹

## HQYFMpTEpYVAT
[1]
  kcat/KM: 3200 M⁻¹ s⁻¹

## YDEDFpYDYEF [Peptide 26]
[2]
  Km: 11 µM
  kcat: 2.6 s⁻¹

## YNAFAIpTAA [Peptide 2]
[1]
  fold decrease of VH1 catalytic activity relative to parent peptide: ~ 2 fold
[1]; pH 7.4
  Km: > 2000 µM
  kcat/KM: 93 ± 3 M⁻¹ s⁻¹

Source: article PMC3740347 (Journal of the American Chemical Society, 2013)
